Experiments:
[1] = tested on: Fast Growing (FG) cells; assay: Fast Growing (FG) cell xenografts in mice; assay type: in vivo, human
From the text: FIG. 45 is a compilation of all data from mice bearing PDX or FG cancer xenographs, including PDX1424, PDX1444, and FG.

[2] = tested on: IL-17; assay: circulating IL-17 level in tumor-bearing KP^f/fC mice; assay type: in vivo, mouse; conditions: 120 mg/kg JTE-151 regimen, responding mice (FIGS. 59-60)
Experimental: Similarly, the anti-cancer effect of JTE-151 was tested on tumor-bearing KP^f/fC mice in vivo at a higher dose of 120 mg/kg (FIGS. 59-61 showing three individual experiments). For each experiment, one mouse was given vehicle treatment, and another mouse was given the JTE-151 regimen as specified in the figures. For example, in FIG. 59, the JTE-151 mouse received 120 mg/kg body weight of JTE-151 for 2 weeks and then 90 mg/kg JTE-151 for 1 week. In the first 1.5 weeks, JTE-151 was given once daily, and in the second 1.5 weeks, JTE-151 was given twice daily. […] In each of FIGS. 59-61, the horizontal axis of each graph represents the target (vehicle vs. JTE-151 mouse), and the vertical axis represents the specified measurement.

[3] = tested on: primary patient-derived organoids; assay: primary patient-derived organoids, SR2211; assay type: cell-based, human; conditions: following SR2211 treatment
Experimental: Primary patient organoids were established and provided by Dr. Andrew Lowy. Briefly, patient-derived xenografts were digested for 1 hour at 37° C. in RPMI containing 2.5% FBS, 5 mg/ml Collagenase II, and 1.25 mg/ml Dispase II, then passaged through a […] mesh filter. Cells were plated at a density of 1.5×10^5 cells per 50 μl Matrigel. After domes were solidified, growth medium was added as follows: RPMI containing 50% Wnt3a conditioned media, 10% R-Spondinl-conditioned media, 2.5% FBS, 50 ng/ml EGF, 5 mg/ml Insulin, 12.5 ng/ml hydrocortisone, and 14 μM Rho Kinase Inhibitor. After establishment, organoids were passaged and maintained as previously described (Boj et al., 2015). Briefly, organoids were isolated using Cell Recovery Solution (Corning 354253), then dissociated into single cell suspensions with TrypLE Express (ThermoFisher 12604) supplemented with 25 μg/ml DNase I (Roche) and 14 μM Rho Kinase Inhibitor (Y-27632, Sigma). Cells were split 1:2 into 20 μl domes plated on pre-warmed 48 well plates. Domes were incubated at 37° C. for 5 min, then covered with human complete organoid feeding media (Boj et al., 2015) without Wnt3a-conditioned media. […] Organoids were grown in the presence of vehicle or SR2211 for 7 days, then imaged and quantified, n=3 independent wells plated per dose per treatment group. […] Organoids were counted and measured using ImageJ 1.51s software.

[4] = tested on: KP^f/fC tumors; conditions: chimeric wild type versus RORγ recipient mice
[5] = tested on: Hmga2; assay: target engagement by Hmga2 immunofluorescence in KP^f/fC tumors; assay type: in vivo, mouse; conditions: mid-point of the treatment regimen
Experimental: FIGS. 20A-20D show target engagement following RORγ inhibition in vivo, related to FIGS. 5A-5X. FIGS. 20A and 20B: Tumor-bearing KP^f/fC mice 9.5 weeks of age were treated with vehicle or SR2211 for two weeks (midpoint), after which tumors were isolated, fixed, and analyzed for target engagement of Hmga2 in epithelial cells by immunofluorescence. Quantification of Hmga2-positive epithelial cells in vehicle or SR2211 treated tumors (FIG. 20A) representative images (FIG. 20B). FIGS. 20C and 20D: Tumor-bearing KP^f/fC mice were treated from 8 weeks of age to endpoint with either vehicle or SR2211. Quantification of Hmga2-positive epithelial cells in vehicle or SR2211 treated tumors (FIG. 20C), representative images (FIG. 20D). Four frames were analyzed per mouse, n=2-4 mice per condition, Hmga2 (red), Keratin (green). Data represented as mean+/−S.E.M. *p<0.05, **p<0.01, ***p<0.001 by Student's t-test or One-way ANOVA. Grubb's test (p=0.1), was used to remove an outlier from the midpoint SR2211 treated group.
Pancreatic cancer tissue from KP^f/fC mice was fixed in Z-fix (Anatech Ltd, Fisher Scientific) and paraffin embedded at the UCSD Histology and Immunohistochemistry Core at The Sanford Consortium for Regenerative Medicine according to standard protocols. 5 μm sections were obtained and deparaffinized in xylene. […]

[6] = tested on: LuCA KP lung cancer cells; assay: lung cancer tumor sphere formation; assay type: cell-based; conditions: 0.3 μM, 0.6 μM, 1 μM, and 1.2 μM; relative to control
From the text: Then the number of formed tumor spheres were counted and quantified as relative to control.

[7] = tested on: organoids derived from acinar tumors; assay: acinar tumor organoids (Msi2-Cre^ER/LSL-Myc); assay type: cell-based, mouse
From the text: A new Msi2-Cre^ER mouse model of aggressive pancreatic cancer was created, in which Cre is driven off of the Msi2 promoter and can be conditionally triggered by tamoxifen delivery. This Msi2-Cre^ER driver can be crossed into mice bearing distinct mutations such as Ras (leading to myeloproliferative neoplasia), p53, or Myc. When the Msi2-Cre^ER driver was crossed into an LSL-MyC^T58A model developed by Dr. Robert Wechsler-Reya at SBP/Rady, La Jolla, Calif. (Mollaoglu et al., 2017) (FIG. 79), it produced multiple cancer types including small cell lung cancer, choroid plexus tumors, and early stage kidney tumors.

[8] = tested on: Msi2-reporter+ stem cells; assay: live imaging of REM2-KP^f/fC tumors; assay type: in vivo, mouse
Experimental: For imaging, mice were anesthetized by intraperitoneal injection of ketamine and xylazine (100/20 mg/kg). In order to visualize blood vessels and nuclei, mice were injected retro-orbitally with AlexaFluor 647 anti-mouse CD144 (VE-cadherin) antibody and Hoechst 33342 immediately following anesthesia induction. After 25 minutes, pancreatic tumors were removed and placed in HBSS containing 5% FBS and 2 mM EDTA. 80-150 μm images in 1024×1024 format were acquired with an HCX APO L20× objective on an upright Leica SP5 confocal system using Leica LAS AF 1.8.2 software. GFP cluster sizes were measure using ImageJ 1.51s software. 2 mice per treatment group were analyzed in this study; 6-10 frames were analyzed per mouse.

[9] = AZD-0284 in combination with gemcitabine

CC(=O)N1Cc2cc(S(C)(=O)=O)ccc2[C@@H]1C(=O)Nc1ccc(C(O)(C(F)(F)F)C(F)(F)F)cc1 [AZD-0284]
EpCam+/CD133+ tumor stem cells ([1]; 90 mg/kg AZD-0284): decrease | total cell number ([1]; 90 mg/kg AZD-0284): decrease | EpCam+/CD133+ tumor stem cells [1, 9]: decrease | total cell number [1, 9]: decrease

Cc1ccc(NC(=O)C[C@H](CCC(=O)O)c2noc([C@H]3C[C@@H](CC(C)(C)C)C3)c2C2CC2)c(Cl)c1 [JTE-151, (4S)-6-[(2-chloro-4-methylphenyl)amino]-4-{4-cyclopropyl-5-[cis-3-(2,2-dimethylpropyl)cyclobutyl]isoxazol-3-yl}-6-oxohexanoic acid]
circulating IL-17 levels [2]: decrease

OC(c1ccc(-c2ccc(CN3CCN(Cc4ccncc4)CC3)cc2)c(F)c1)(C(F)(F)F)C(F)(F)F [SR2211]
reduction in total organoid volume [3]: ~300 fold | impact on tumor growth, cellularity, and stem cell content [4]: equivalent | Hmga2 in pancreatic epithelial cells [5]: downregulated | tumor sphere formation [6]: significantly reduced | organoid growth ([7]; 3 μM or 6 μM SR2211): significantly reduced | sensitivity of organoids ([7]; acinar tumors): sensitive | necrosis in surrounding tissues ([8]; mouse, in vivo): no increased necrosis | large stem cell clusters ([8]; within 1 week of treatment): striking depletion

From patent US20220202811A1, “TREATMENT FOR RETINOIC ACID RECEPTOR-RELATED ORPHAN RECEPTOR Ɣ (RORƔ)-DEPENDENT CANCERS” (The Regents of the University of California, priority 2019, published 2022)
